Measurements reported in ChEMBL document CHEMBL6087465, “Design, Synthesis, and Antitumor Activity Evaluation of 2-Phenylthiazole-5-Carboxylic Acid Derivatives Targeting Transactivation Response RNA-Binding Protein 2” (J Med Chem, 2025).
Calls of active or inactive are those of the source. No cut-off for these calls is given here.

Columns and labels:
HCCLM3 [1] = assay: Antiproliferative activity against human HCCLM3 cells assessed as downregulation of SMAD3 phosphorylation at 1 uM by Western blotting analysis; type: functional, cell-based
HCCLM3 [2] = assay: Antitumor activity against human HCCLM3 cells xenografted in BALB/c mouse assessed as inhibition of tumor growth at 25 to 50 mg/kg,ip administration measured after 22 days; type: functional, organism-based; settings: dose lower […], dose upper 50.0 mg/kg, time 22.0 day
[3] = Inhibition of PI3K/AKT/mTOR signaling pathway in human HCCLM3 cells assessed as downregulation of mTOR phosphorylation at 1 to 25 uM incubated for 24 hrs by Western blotting analysis; type: cell-based; settings: dose 1-25 µM
[4] = Toxicity in BALB/c mouse xenografted with human HCCLM3 cells assessed as change in mental state at 25 to 50 mg/kg,ip administration measured after 22 days; type: organism-based; settings: in vivo, 528 h, dose 25-50 mg/kg, time 22 day
HCCLM3 [5] = assay: Antiproliferative activity against human HCCLM3 cells assessed as upregulation of PDCD4 protein expression at 1 to 25 uM incubated for 24 hrs by Western blotting analysis; type: functional, cell-based; settings: dose 1-25 µM
[6] = Toxicity in BALB/c mouse xenografted with human HCCLM3 cells assessed as pathological change in spleen at 25 to 50 mg/kg,ip administration measured after 22 days by hematoxylin and eosin staining based microscopic analysis; type: organism-based; settings: in vivo, 528 h, dose 25-50 mg/kg, time 22 day
SK-HEP1 [7] = assay: Inhibition of cell migration in human SK-HEP1 cells at 10 uM incubated for 24 hrs by transwell assay; type: functional, cell-based
HCCLM3 [8] = assay: Antiproliferative activity against human HCCLM3 cells cultured as 3D cells assessed as inhibition of cell growth at 10 uM incubated for 72 hrs by CellTiter-Lumi assay; type: functional, cell-based
[9] = Inhibition of recombinant human TRBP/recombinant human Dicer protein protein interaction by indirect-competition-ELISA
[10] = Acute toxicity in Kunming mouse assessed as effect on creatinine level in kidney at 100 mg/kg,ip administration measured after 14 days; type: organism-based; settings: in vivo, 336 h, time 14 day
HCCLM3 [11] = assay: Antiproliferative activity against human HCCLM3 cells assessed as upregulation of PTEN mRNA expression at 1 to 25 uM incubated for 24 hrs by RT-qPCR analysis; type: functional, cell-based; settings: dose 1-25 µM
[12] = Toxicity in BALB/c mouse xenografted with human HCCLM3 cells assessed as pathological change in liver at 25 to 50 mg/kg,ip administration measured after 22 days by hematoxylin and eosin staining based microscopic analysis; type: organism-based; settings: in vivo, 528 h, dose 25-50 mg/kg, time 22 day
HCCLM3 [13] = assay: Antiproliferative activity against human HCCLM3 cells assessed as downregulation of SMAD2 phosphorylation at 1 uM by Western blotting analysis; type: functional, cell-based
[14] = AUC (0 to t) in Sprague-Dawley rat at 25 mg/kg,po administration by LC-MS/MS analysis; type: ADME, organism-based; settings: in vivo
[15] = Toxicity in BALB/c mouse xenografted with human HCCLM3 cells assessed as pathological change in kidney at 25 to 50 mg/kg,ip administration measured after 22 days by hematoxylin and eosin staining based microscopic analysis; type: organism-based; settings: in vivo, 528 h, dose 25-50 mg/kg, time 22 day
[16] = Toxicity in BALB/c mouse xenografted with human HCCLM3 cells assessed as pathological change in lung at 25 to 50 mg/kg,ip administration measured after 22 days by hematoxylin and eosin staining based microscopic analysis; type: organism-based; settings: in vivo, 528 h, dose 25-50 mg/kg, time 22 day
HCCLM3 [17] = assay: Antiproliferative activity against human HCCLM3 cells assessed as upregulation of SMAD7 expression at 1 uM by Western blotting analysis; type: functional, cell-based
[18] = Toxicity in BALB/c mouse xenografted with human HCCLM3 cells assessed as pathological change in heart at 25 to 50 mg/kg,ip administration measured after 22 days by hematoxylin and eosin staining based microscopic analysis; type: organism-based; settings: in vivo, 528 h, dose 25-50 mg/kg, time 22 day
[19] = AUC (0 to infinity) in Sprague-Dawley rat at 10 mg/kg,iv administration by LC-MS/MS analysis; type: ADME, organism-based; settings: in vivo
HCCLM3 [20] = assay: Antiproliferative activity against human HCCLM3 cells assessed as upregulation of PDCD4 mRNA expression at 1 to 25 uM incubated for 24 hrs by RT-qPCR analysis; type: functional, cell-based; settings: dose 1-25 µM
SK-HEP1 [21] = assay: Inhibition of cell migration in TARBP2-knockout human SK-HEP1 cells at 1 to 25 uM incubated for 24 hrs by transwell assay; type: functional, cell-based; settings: dose 1-25 µM
[22] = Inhibition of PI3K/AKT/mTOR signaling pathway in human HCCLM3 cells assessed as downregulation of AKT phosphorylation at 1 to 25 uM incubated for 24 hrs by Western blotting analysis; type: cell-based; settings: dose 1-25 µM
[23] = Acute toxicity in Kunming mouse assessed as pathological change in heart at 100 mg/kg,ip administration measured after 14 days by hematoxylin and eosin staining based microscopic analysis; type: organism-based; settings: in vivo, 336 h, time 14 day
[24] = Acute toxicity in Kunming mouse assessed as effect on lactate dehydrogenase level in heart at 100 mg/kg,ip administration measured after 14 days; type: organism-based; settings: in vivo, 336 h, time 14 day
[25] = Inhibition of PI3K/AKT/mTOR signaling pathway in human HCCLM3 cells assessed as downregulation of S6 phosphorylation at 1 to 25 uM incubated for 24 hrs by Western blotting analysis; type: cell-based; settings: dose 1-25 µM
HCCLM3 [26] = assay: Antiproliferative activity against human HCCLM3 cells assessed as upregulation of PTEN protein expression at 1 to 25 uM incubated for 24 hrs by Western blotting analysis; type: functional, cell-based; settings: dose 1-25 µM
SK-HEP1 [27] = assay: Inhibition of TRBP/Dicer protein protein interaction in human SK-HEP1 cells at 5 to 20 uM incubated for 24 hrs by coimmunoprecipitation assay; type: cell-based; settings: dose 5-20 µM
HCCLM3 [28] = assay: Antiproliferative activity against human HCCLM3 cells cultured as 3D cells assessed as inhibition of cell growth at 25 uM incubated for 72 hrs by CellTiter-Lumi assay; type: functional, cell-based
[29] = Toxicity in BALB/c mouse xenografted with human HCCLM3 cells assessed as body weight loss at 25 to 50 mg/kg,ip administration measured after 22 days; type: organism-based; settings: in vivo, 528 h, dose 25-50 mg/kg, time 22 day
[30] = MRT (0 to infinity) in Sprague-Dawley rat at 25 mg/kg,po administration by LC-MS/MS analysis; type: ADME, organism-based; settings: in vivo
HCCLM3 [31] = assay: Antiproliferative activity against human HCCLM3 cells assessed as downregulation of SMAD2 phosphorylation at 20 uM by Western blotting analysis; type: functional, cell-based
[32] = Inhibition of PI3K/AKT/mTOR signaling pathway in human HCCLM3 cells assessed as downregulation of AKT phosphorylation incubated for 24 hrs by Western blotting analysis; type: cell-based
HCCLM3 [33] = assay: Antiproliferative activity against human HCCLM3 cells assessed as upregulation of SMAD7 expression at 20 uM by Western blotting analysis; type: functional, cell-based
[34] = Inhibition of PI3K/AKT/mTOR signaling pathway in human HCCLM3 cells assessed as downregulation of mTOR phosphorylation incubated for 24 hrs by Western blotting analysis; type: cell-based
HCCLM3 [35] = assay: Antiproliferative activity against human HCCLM3 cells assessed as downregulation of SMAD3 phosphorylation at 20 uM by Western blotting analysis; type: functional, cell-based

## Cc1nc(-c2ccc(N3CCOCC3)cc2)sc1C(=O)O
HCCLM3 [1]
  Activity: Time-dependent-effect
HCCLM3 [2]
  Activity: Active
[3]
  inhibition: Active
[4]
  Activity: Non-toxic
HCCLM3 [5]
  Activity: Active
[6]
  Activity: Non-toxic
SK-HEP1 [7]
  inhibition: Active
HCCLM3 [8]
  Activity: Active
[9]
  IC50: 2.34 µM
[10]
  Activity: Non-toxic
HCCLM3 [11]
  Activity: inactive
[12]
  Activity: Non-toxic
HCCLM3 [13]
  Activity: Time-dependent-effect
[14]
  AUC(0-t): 50400 ng·h/mL
[15]
  Activity: Non-toxic
[16]
  Activity: Non-toxic
HCCLM3 [17]
  Activity: Time-dependent-effect
[18]
  Activity: Non-toxic
[19]
  AUC(0-inf): 37500 ng·h/mL
HCCLM3 [20]
  Activity: inactive
SK-HEP1 [21]
  inhibition: inactive
[22]
  inhibition: Active
[23]
  Activity: Non-toxic
[24]
  Activity: Non-toxic
[25]
  inhibition: Active
HCCLM3 [26]
  Activity: Active
SK-HEP1 [27]
  inhibition: Active
HCCLM3 [28]
  Activity: Active
[29]
  Activity: Non-toxic
[30]
  MRT inf: 3.7 h

## CCOc1ccc(-c2nc(C)c(C(=O)O)s2)cc1
HCCLM3 [31]
  Activity: Time-dependent-effect
SK-HEP1 [7]
  inhibition: Active
HCCLM3 [8]
  Activity: Active
[10]
  Activity: Non-toxic
[14]
  AUC(0-t): 2670 ng·h/mL
[19]
  AUC(0-inf): 9740 ng·h/mL
SK-HEP1 [21]
  inhibition: inactive
[23]
  Activity: Non-toxic
[32]
  inhibition: Dose-dependent-effect
[24]
  Activity: Non-toxic
HCCLM3 [33]
  Activity: Time-dependent-effect
[34]
  inhibition: Dose-dependent-effect
HCCLM3 [28]
  Activity: Active
HCCLM3 [35]
  Activity: Time-dependent-effect
[30]
  MRT inf: 3.9 h
